Holding throughout (format): in vivo, ICR mice
Assay [1] relates to normal mice. Put plainly: NA, DA and 5-HT in the brain tissue of normal mice (fluorophotometry). To be noted: for 5-HT in the brain tissue of normal mice / DA in the brain tissue of normal mice / NA in the brain tissue of normal mice: gavage 25 days, 80 min after final administration; for effect on 5-HT in brain tissue of normal mice (in words) / effect on NA and DA in brain tissue of normal mice (in words): positive control, P<0.01.
Experimental: Method: ICR male mice; and the groups and administration doses can be found in Table 10. The animals in the groups of administration with a drug were administered by gavage for 25 consecutive days. At 80 min after the final administration, the heads of mice were cut off and the brain tissues were taken out, frozen with dry ice and preserved at −20□. The content of noradrenaline (NA), dopamine (DA) and 5-hydroxytryptamine (5-HT) in the whole brain homogenate without cerebellum was measured respectively by means of the fluorophotometry^[2].
(§1) At the end of the test, the heads of mice were rapidly cut off and the brain tissues were immediately taken out, promptly frozen with dry ice and moved into a refrigerator having a temperature of −20□. The tissue was defreezed before homogenization. The cerebellum, medulla oblongata and olfactory bulb were removed, and then 300 mg brain tissue was weighed with a analytical balance. Then 10 times amount by volume of acidic n-butanol (prepared by saturating 100 ml re-steamed n-butanol with NaCl, and mixing with 0.85 ml strong hydrochloric acid) were added into the brain tissue for homogenization.
(§2) The brain tissue homogenate was centrifugated (2,000 rpm) for 5 min. Then 2.5 ml supernatant was taken out and placed in centrifuge tube with a plug containing 1 ml 0.1N HC1 and 5 ml n-heptane. The centrifuge tube was placed on the KS vibrator, oscillated for 5 min and centrifugated (2,500 rpm) for 5 min. 6 to ml upper organic phase was placed into the tube having a plug and containing 0.6 ml 0.033 M NaHCO3 so as to extract 5-HIAA. Then 0.5 ml and 0.4 ml were respectively taken out from the lower aqueous phase, wherein the former was used to measure NA and DA, and the latter was used to measure 5-HT.
(§3) Internal standard tube treatment: 9 ml of the acidic n-butanol homogenate was averagely divided into 3 tubes, to two of them, 40 μl mixed standard solution (respectively containing 5 μg/ml standard substances of NA, DA and 5-HT) was added.
(3) Measurement: The fluorophotometry was conducted on NA, DA and 5-HT (KUANG Peigen, ZHOU Xinfu and XU Bo, Extraction of Monoamine Neurotransmitters in Brain Tissue and Measurement of the Neurotransmitters by Means of Fluorophotometry, Academic Journal of PLA Postgraduate Medical School, 1982, 3(2) 181-185).

For the next assay, the system named is 5-HTP model mice. Put plainly: Shaking-head behavior induced by 5-hydroxytryptophane (5-HTP) after pargyline. The conditions noted are these: 14 mg/kg body weight; P<0.01. The text has this: (IV) Effects of Capsules of the Present Invention on Shaking-Head Behavior Induced by 5-hydroxytryptophane (5-HTP) 1. Principle: according to the monoamine hypothesis on the occurrence of depression, the function of antidepressant lies in that it can enhance the functions of the noradrenergic and/or serotonergic nerve. A great variety of antidepressant may enhance the effect of 5-HT by blocking the reuptake of 5-HT. 5-HTP may be used as a precursor of 5-HT, and monoamine oxidase inhibitor—pargyline hydrochloride may inhibit the enzymatic degradation thereof. The characteristic symptom—shaking-head behavior is obvious on mice. The enhancement of shaking-head behavior of mice after administration of the test drug may be used as an evidence to the fact that the inhibition of 5-HT uptaking function is the anti-depression mechanism. 2. Method: ICR male mice (20±1 g) were stochastically divided into seven groups according to the body weight, and each group comprises 12 animals. The animals in the groups of administration with a drug were consecutively administered by gavage for 21 days. […] Except the normal control group, other groups were administered with 20 mg/kg body weight of 5-HTP by intraperitoneal injection 90 min after injection of pargyline; and the times of shaking-head behavior were recorded in the following 10 minutes.

The subject of assay [2] is mice of reserpine depression model. Put plainly: NA, DA and 5-HT in the brain tissue of reserpine mice (fluorophotometry). To be noted: for 5-HT in the brain tissue of reserpine mice / DA in the brain tissue of reserpine mice / NA in the brain tissue of reserpine mice: gavage 25 days, reserpine 1 mg/kg ip.
Experimental: The animals in the groups of administration with a drug were administered by gavage for 25 consecutive days. The normal control group and reserpine control group were administered with isovolumetric distilled water. On the 23rd day of the test, 1 mg/kg body weight of reserpine was ip administered for each group except the normal control group, and each group receiving reserpine was administered once more. At 1 hour after the last administration of reserpine, the heads of mice were cut off and the brain tissues were taken out, frozen with dry ice and preserved at −20□. The content of noradrenaline (NA), dopamine (DA) and 5-hydroxytryptamine (5-HT) in the cerebellar tissue homogenate was measured respectively by means of fluorophotometry.
as §1, §2, §3
Assay [3] shares this test system. Put plainly: “Excircle” behaviour (akinesia) of mice treated with reserpine. To be noted: for Number of animals that have excircle behaviors at 2 h, Excircle (+) / Number of animals that have excircle behaviors at 2 h, Within circle (□) / Number of animals that have excircle behaviors at 4 h, Excircle (+) / Number of animals that have excircle behaviors at 4 h, Within circle (□) / Number of animals that have excircle behaviors at 6 h, Excircle (+) / Number of animals that have excircle behaviors at 6 h, Within circle (□): gavage 22 days, reserpine 2 mg/kg ip, 15 animals; for effect on “excircle” rate of reserpine mice (in words): P<0.05 or P<0.01.
Experimental: (§4) Method: ICR male mice (SPF-grade, having a body weight of 17-20 g) were stochastically divided into seven groups according to the body weight, and the administration dosages can be found in Table 1. The animals in the groups of administration with a drug were administered by gavage for 22 consecutive days. The normal control group and the reserpine control group were administered by gavage with isovolumetric distilled water (0.2 ml/10 g body weight). 2 mg/kg body weight of reserpine was administered by intraperitoneal injection on the 22nd day. After 1 h, 2 h and 6 h of injection of reserpine, animals were placed on a bracket and under observation for 15 s to record the number of animals that closed the eyelids (wherein “−” represents open eyelids; “±” represents semi-open eyelids; and “+” represents close eyelids). […] At 2 h, 4 h, and 6 h after the administration of reserpine, animals were placed at the center of a piece of circular white paper with a diameter of 7.5 cm and under observation for 15 s to record the number of animals that still remained within the circle in 15 s.

Assay [4] has the same test system. Put plainly: Eyelids closing (ptosis) caused by reserpine. To be noted: for Number of animals which close the eyelids at 1 h after the administration, ± (semi-open eyelids) / Number of animals which close the eyelids at 1 h after the administration, − (open eyelids) / Number of animals which close the eyelids at 1 h after the administration, □ (close eyelids) / Number of animals which close the eyelids at 2 h after the administration, ± (semi-open eyelids) / Number of animals which close the eyelids at 2 h after the administration, − (open eyelids) / Number of animals which close the eyelids at 2 h after the administration, □ (close eyelids) / Number of animals which close the eyelids at 6 h after the administration, ± (semi-open eyelids) / Number of animals which close the eyelids at 6 h after the administration, − (open eyelids) / Number of animals which close the eyelids at 6 h after the administration, □ (close eyelids): gavage 22 days, reserpine 2 mg/kg ip, 15 animals; for effect on reserpine-induced ptosis (in words): P<0.01.
Experimental: as §4

For assay [5] the test system is unchanged. Put plainly: Body temperature of mice treated with reserpine. To be noted: for Body temperature, 6 h after making models: rectal temperature; for effect on fall in body temperature caused by reserpine (in words): P<0.01. As for the experimental part: Method: ICR male mice (SPF-grade, having a body weight of 18-22 g) were stochastically divided into seven groups according to the body weight, and the dosages administrated are shown in Table 7. The animals in the groups of administration with a drug were administered for 22 consecutive days, and the basal body temperature (rectal temperature) of the animals was measured before administration on the 22nd day. […] The difference values of body temperature before and after administration and the difference values of their own body temperatures were calculated so as to conduct the statistical comparison by single factor analysis of variance (H. G Vogel & W. H. Vogel, Drug Discovery and Evaluation […]Guidance for Pharmacological Assays, translated by D U Guanhua et al, [M] Beijing: Science Press, 2001.409,412). The results can be found in Tables 7 and 8.

In assay [6] the test system is mice given sodium pentobarbital. Put plainly: Rate of falling asleep caused by intraperitoneal sodium pentobarbital. To be noted: 0.33 g/kg body weight, gavage 7 days; sodium pentobarbital 35 mg/kg ip; 11 animals. The protocol:
III. […] Method: ICR mice having a body weight of 18-22 g, half male and half female, were randomly divided into five groups according to the body weight (see Table 14 for details). The animals in the groups of administration with a drug were consecutively administered for 7 days by gavage. Mice were weighed before the last administration, and administered by intraperitoneal injection with 35 mg/kg body weight sodium pentobarbital at 1 h after the last administration. The number of animals falling asleep was recorded.

Assay [7] relates to normal mice. Put plainly: Analgetic effects on normal mice (hot plate method). To be noted: 0.33 g/kg body weight, gavage 3 days; hot plate 56±0.5. As for the experimental part:
ICR female mice having a body weight of 18-22 g were stochastically divided into six groups according to the body weight. Before test, the temperature of the aqueous thermostat was controlled at 56±0.5[…]. One mouse was placed on the hot plate each time, and the time of licking postpedes was defined as the pain threshold of said mouse. […] The normal pain thresholds were measured again. The average value of two normal pain thresholds was used as the pain threshold of the mouse before administration. […] There were 22 mice in the normal control group, and there were 11 mice in each of other groups.

The subject of the next assay is mice given acetic acid. Put plainly: Stretching caused by intraperitoneal acetic acid (stretching method). To be noted: 0.33 g/kg body weight, gavage 3 days; 0.6% glacial acetic acid ip; during 15 minutes.
[8] abbreviates: 0.01 g/kg body weight per Table 10.
[9] abbreviates: 0.01 g/kg body weight, 5 animals.
Setting [10] is: 0.014 g/kg body weight, 22 days, reserpine 2 mg/kg ip.
Setting [11] is: 0.05 g/kg body weight per Table 10.
Where [12] appears, read: 0.050 g/kg body weight, 8 animals.
Where [13] appears, read: 0.050 g/kg body weight, 22 days, reserpine 2 mg/kg ip.

The structures appear in SMILES notation. Where a name gives a salt, the structure may show the parent alone.

Text for mice given acetic acid: Method: ICR mice having a body weight of 18-22 g, half male and half female, were randomly divided into five groups according to the body weight, including the group of 5 g/kg body weight capsules of the present invention, the group of 2.5 g/kg body weight capsules of the present invention, the group of 1.25 g/kg body weight capsules of the present invention, the aspirin group (0.33 g/kg body weigh), and the normal control group (administered with isovolumetric normal saline). There were 19 mice in the normal control group, and there were 10-11 mice in each of other groups. The animals in the groups of administration with a drug were consecutively administered for 3 days by gavage. Except the normal control group, each mouse in other groups was administered by intraperitoneal injection with 0.1 ml/10 g body weight 0.6% glacial acetic acid at 1 h after the final administration. Then the times of stretching caused by glacial acetic acid during 15 minutes after injection were recorded.

With `CNCCC(Oc1ccc(C(F)(F)F)cc1)c1ccccc1` (centres unmarked) [Fluose fine hydrochloride, Fluoxetine Hydrochloride], in the assay with normal mice [1] (0.01 g/kg body weight), the “5-HT in the brain tissue of normal mice” value stood at 841.85 ng/g, the “DA in the brain tissue of normal mice” value was 1432.52 ± 395.77 ng/g and the “NA in the brain tissue of normal mice” value is given as 896.46 ng/g. In addition, in the assay on normal mice [1] (setting [8]), the “effect on 5-HT in brain tissue of normal mice (in words)” value is listed as “notably increase the level of 5-HT”; the “effect on NA and DA in brain tissue of normal mice (in words)” value was “increase the level of NA and DA”. For the same molecule, the “effect on 5-HTP-induced shaking-head behavior (in words)” value in the assay with 5-HTP model mice is reported as “notably increase the times of 5-HTP-induced shaking-head behavior”. In [2] (setting [9]), the “5-HT in the brain tissue of reserpine mice” value is recorded as 707.25 ± 115.94 ng/g, the “DA in the brain tissue of reserpine mice” value was found to be 1967.20 ± 562.57 ng/g and the “NA in the brain tissue of reserpine mice” value is given as 1326.48 ± 670.50 ng/g. For the same molecule, in assay [3] (0.014 g/kg body weight), the “Number of animals that have excircle behaviors at 2 h, Excircle (+)” value is recorded as 15; the “Number of animals that have excircle behaviors at 2 h, Within circle (□)” value is listed as 0; the “Number of animals that have excircle behaviors at 4 h, Excircle (+)” value stood at 15; the “Number of animals that have excircle behaviors at 4 h, Within circle (□)” value was found to be 0. Besides, in [3] (0.014 g/kg body weight), the “Number of animals that have excircle behaviors at 6 h, Excircle (+)” value was determined as 14 and the “Number of animals that have excircle behaviors at 6 h, Within circle (□)” value is reported as 1. Further, in assay [3] (14 mg/kg body weight), the “effect on “excircle” rate of reserpine mice (in words)” value is “notably increase the “excircle” rate”. In assay [4] (0.014 g/kg body weight), the “Number of animals which close the eyelids at 1 h after the administration, ± (semi-open eyelids)” value was found to be 8; the “Number of animals which close the eyelids at 1 h after the administration, − (open eyelids)” value came to 7; the “Number of animals which close the eyelids at 1 h after the administration, □ (close eyelids)” value was 0; the “Number of animals which close the eyelids at 2 h after the administration, ± (semi-open eyelids)” value is listed as 6. Further, in assay [4] (0.014 g/kg body weight), the “Number of animals which close the eyelids at 2 h after the administration, − (open eyelids)” value is 5; the “Number of animals which close the eyelids at 2 h after the administration, □ (close eyelids)” value is reported as 4; the “Number of animals which close the eyelids at 6 h after the administration, ± (semi-open eyelids)” value came to 11; the “Number of animals which close the eyelids at 6 h after the administration, − (open eyelids)” value came out at 2. In addition, the “Number of animals which close the eyelids at 6 h after the administration, □ (close eyelids)” value in assay [4] (0.014 g/kg body weight) stood at 2. Moreover, the “effect on reserpine-induced ptosis (in words)” value in assay [4] (14 mg/kg body weight) is on record as “antagonistic against reserpine-induced ptosis”. In assay [5] (setting [10]), the “Body temperature difference, 6 h after making models” value is listed as 2.66 ± 1.11 □; the “Body temperature difference, 24 h after making models” value is recorded as 2.27 ± 1.00 □; the “Body temperature, 6 h after making models” value is listed as 35.0 ± 0.87 □. For the same molecule, the “effect on fall in body temperature caused by reserpine (in words)” value in assay [5] (14 mg/kg body weight) is “notably antagonize the fall in body temperature”.
On to `CC(=O)Oc1ccccc1C(=O)O` [Aspirin], for which, in assay [6], the “Number of animals falling asleep, Falling asleep” value turned out to be 5 and the “Number of animals falling asleep, Not falling asleep” value worked out at 6. In the assay on normal mice [7], the “Pain threshold, 1 h after admi.” value was 18.27 ± 12.52 S; the “Pain threshold, 3 h after admi.” value was determined as 15.27 ± 2.57 S; the “Pain threshold, 5 h after admi.” value is 16.09 ± 4.70 S. In the assay with mice given acetic acid, the Stretching times turned out to be 12.00 ± 9.20.
`CN(C)CCC=C1c2ccccc2CCc2ccccc21` [amitriptyline, Amitriptyline Hydrochloride]: in the assay with normal mice [1] (0.05 g/kg body weight), the “5-HT in the brain tissue of normal mice” value is 1015.17 ng/g, the “DA in the brain tissue of normal mice” value amounted to 1519.29 ± 373.72 ng/g and the “NA in the brain tissue of normal mice” value came out at 803.54 ng/g. Further, in the assay with normal mice [1] (setting [11]), the “effect on 5-HT in brain tissue of normal mice (in words)” value is reported as “notably increase the level of 5-HT”; the “effect on NA and DA in brain tissue of normal mice (in words)” value was “increase the level of NA and DA”. In addition, the “effect on NA and DA in brain tissue of reserpine mice (in words)” value in assay [2] (50 mg/kg body weight) is “notably enhance the level of NA and DA”. Further, in assay [2] (setting [12]), the “5-HT in the brain tissue of reserpine mice” value is listed as 557.57 ± 174.75 ng/g, the “DA in the brain tissue of reserpine mice” value amounted to 1806.61 ± 275.37 ng/g and the “NA in the brain tissue of reserpine mice” value was determined as 1023.46 ± 619.56 ng/g. In assay [3] (0.050 g/kg body weight), the “Number of animals that have excircle behaviors at 2 h, Excircle (+)” value is 15; the “Number of animals that have excircle behaviors at 2 h, Within circle (□)” value came out at 0; the “Number of animals that have excircle behaviors at 4 h, Excircle (+)” value is listed as 13; the “Number of animals that have excircle behaviors at 4 h, Within circle (□)” value turned out to be 2. Further, in assay [3] (0.050 g/kg body weight), the “Number of animals that have excircle behaviors at 6 h, Excircle (+)” value worked out at 13 and the “Number of animals that have excircle behaviors at 6 h, Within circle (□)” value was 2. For the same molecule, the “effect on “excircle” rate of reserpine mice (in words)” value in assay [3] (50 mg/kg body weight) is reported as “notably increase the “excircle” rate”. In assay [4] (0.050 g/kg body weight), the “Number of animals which close the eyelids at 1 h after the administration, ± (semi-open eyelids)” value is reported as 10; the “Number of animals which close the eyelids at 1 h after the administration, − (open eyelids)” value turned out to be 4; the “Number of animals which close the eyelids at 1 h after the administration, □ (close eyelids)” value is listed as 1; the “Number of animals which close the eyelids at 2 h after the administration, ± (semi-open eyelids)” value is listed as 11. In assay [4] (0.050 g/kg body weight), the “Number of animals which close the eyelids at 2 h after the administration, − (open eyelids)” value was 2; the “Number of animals which close the eyelids at 2 h after the administration, □ (close eyelids)” value turned out to be 2; the “Number of animals which close the eyelids at 6 h after the administration, ± (semi-open eyelids)” value is 12; the “Number of animals which close the eyelids at 6 h after the administration, − (open eyelids)” value is listed as 0. For the same molecule, the “Number of animals which close the eyelids at 6 h after the administration, □ (close eyelids)” value in assay [4] (0.050 g/kg body weight) stood at 3. For the same molecule, the “effect on reserpine-induced ptosis (in words)” value in assay [4] (50 mg/kg body weight) was “antagonistic against reserpine-induced ptosis”. For the same molecule, in assay [5] (setting [13]), the “Body temperature difference, 6 h after making models” value is listed as 2.38 ± 1.30 □ and the “Body temperature, 6 h after making models” value is listed as 34.36 ± 1.12 □. In addition, in [5] (50 mg/kg body weight), the “effect on fall in body temperature caused by reserpine (in words)” value was “notably antagonize the fall in body temperature”.
